Values of other authors as cited in US20250195565A1 (Fempharma Europe, LLC, priority 2018, published 2025).

System: human vaginal smooth muscle cells
Conditions: zinc at a tissue level of 20 μM

In the case of [Zn] [zinc], the “effect on production of extracellular components (collagen, elastin) by the muscle cells” value is listed as “beneficial effect”.
